The values below come from US11746100B2 (GLOBAL BLOOD THERAPEUTICS, INC., priority 2020, dated 2023).

The term pEC50 denotes the negative decadic logarithm of the EC50, by convention in mol/L. High values mean a small EC50, low ones a large EC50.

Each structure is given as a SMILES string.

For this assay, the target named is T1, human ferroportin (Homo sapiens, UniProt Q9NP59).
T1 construct: luciferase reporter (read with the Nano-Glo Luciferase Assay System); expressed in transfected cells; host or cells: CHO cells, stably transfected, expression induced with doxycycline
T1 sequence (Q9NP59 1-571): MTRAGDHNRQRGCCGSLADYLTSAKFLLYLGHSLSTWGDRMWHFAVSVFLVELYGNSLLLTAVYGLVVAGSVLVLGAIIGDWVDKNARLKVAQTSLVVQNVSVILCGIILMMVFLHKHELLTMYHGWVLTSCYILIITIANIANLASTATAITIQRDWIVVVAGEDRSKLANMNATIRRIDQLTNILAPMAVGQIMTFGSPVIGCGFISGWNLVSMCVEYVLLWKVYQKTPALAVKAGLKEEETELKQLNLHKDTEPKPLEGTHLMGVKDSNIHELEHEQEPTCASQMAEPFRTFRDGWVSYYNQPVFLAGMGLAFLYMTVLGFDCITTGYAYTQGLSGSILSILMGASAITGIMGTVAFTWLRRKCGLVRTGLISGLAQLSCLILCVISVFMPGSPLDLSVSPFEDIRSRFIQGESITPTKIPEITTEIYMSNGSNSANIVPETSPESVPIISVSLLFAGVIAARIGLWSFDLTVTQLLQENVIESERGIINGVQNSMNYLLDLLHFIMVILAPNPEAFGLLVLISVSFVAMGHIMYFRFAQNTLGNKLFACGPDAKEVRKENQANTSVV
The assay can be described thus: Biological in-vitro ferroportin internalization assay (luciferase reporter). In kind it is cell-based. The following applies: average pEC50; stably-transfected CHO cell line expressing human ferroportin tagged to a luciferase reporter; 6 h incubation with test compound. In a few lines:
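Stably transfected CHO cells expressing luciferase-tagged human ferroportin, plated 24 h with ferric ammonium citrate and induced with doxycycline for 24 h. Compounds incubated 6 h, then luciferase activity measured by Nano-Glo; average pEC50 reported.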
On to `CN(CC(=O)NC(C)(C)C)c1nc(-c2cc3scnc3cn2)nc2c1CCC2` [Compound 301, N-tert-butyl-2-[methyl(2-{[1,3]thiazolo[4,5-c]pyridin-6-yl}-5H,6H,7H-cyclopenta[d]pyrimidin-4-yl)amino]acetamide], for which the pEC50 is listed as 6.9.

As for `Cc1ccc(NC(=O)CN(C)c2nc(-c3cc(OCC(C)(C)O)ccn3)nc3c2CCC3)cn1` [Compound 302, 2-({2-[4-(2-hydroxy-2-methylpropoxy)pyridin-2-yl]-5H,6H,7H-cyclopenta[d]pyrimidin-4-yl}(methyl)amino)-N-(6-methylpyridin-3-yl)acetamide], the pEC50 was determined as 7.9.

On to `Cc1cc(-c2nc3c(c(N(C)CC(=O)NC(C)(C)C)n2)CCC3)ncc1F` [Compound 303, N-tert-butyl-2-{[2-(5-fluoro-4-methylpyridin-2-yl)-5H,6H,7H-cyclopenta[d]pyrimidin-4-yl](methyl)amino}acetamide], for which the pEC50 came out at 6.4.

As for `COc1ccc(NC(=O)CN(C)c2nc(-c3cc4scnc4cn3)nc3c2CCC3)cn1` [Compound 304, N-(6-methoxypyridin-3-yl)-2-[methyl(2-{[1,3]thiazolo[4,5-c]pyridin-6-yl}-5H,6H,7H-cyclopenta[d]pyrimidin-4-yl)amino]acetamide], the pEC50 was 6.8.

Compound `C[C@H](C(=O)NC(C)(C)C)N(C)c1nc(-c2cc(OC3COC3)ccn2)nc2c1CCC2` [Compound 305] yielded a pEC50 of 7.8.

Turning to `COc1cc(-c2nc3c(c(N(C)CC(=O)Nc4ccc(C)nc4)n2)CCC3)ncc1F` [Compound 306, 2-{[2-(5-fluoro-4-methoxypyridin-2-yl)-5H,6H,7H-cyclopenta[d]pyrimidin-4-yl](methyl)amino}-N-(6-methylpyridin-3-yl)acetamide], the pEC50 was found to be 6.6.

`CN(CC(=O)Nc1cccc(F)c1)c1nc(-c2cc(OCC3(O)CC3)ccn2)nc2c1CCC2` [Compound 307, N-(3-fluorophenyl)-2-[(2-{4-[(1-hydroxycyclopropyl)methoxy]pyri-din-2-yl}-5H,6H,7H-cyclopenta[d]pyrimidin-4-yl)(methyl)amino]acetamide]: the pEC50 was 7.4.

For `CN(CC(=O)Nc1ccc(C2CC2)nc1)c1nc(-c2cc(OCCO)ccn2)nc2c1CCC2` [Compound 308, N-(6-cyclopropylpyridin-3-yl)-2-({2-[4-(2-hydroxyethoxy)pyridin-2-yl]-5H,6H,7H-cyclopenta[d]pyrimidin-4-yl}(methyl)amino)acetamide], the pEC50 is given as 8.1.

With `COc1ccc(NC(=O)[C@@H](C)N(C)c2nc(-c3cc(OCCO)ccn3)nc3c2CCC3)cn1` [Compound 309, (2R)-2-({2-[4-(2-hydroxyethoxy)pyridin-2-yl]-5H,6H,7H-cyclopenta[d]pyrimidin-4-yl}(methyl)amino)-N-(6-methoxypyridin-3-yl)propanamide], the pEC50 is given as 8.1.

As for `C[C@H](C(=O)Nc1cnn(C)c1)N(C)c1nc(-c2cc(OCCO)ccn2)nc2c1CCC2` [Compound 310, (2R)-2-({2-[4-(2-hydroxyethoxy)pyridin-2-yl]-5H,6H,7H-cyclopenta[d]pyrimidin-4-yl}(methyl)amino)-N-(1-methyl-1H-pyrazol-4-yl)propanamide], the pEC50 is on record as 7.4.

`C[C@H](C(=O)NC(C)(C)C)N(C)c1nc(-c2cc(OCCO)ccn2)nc2c1CCC2` [Compound 311, (2R)-N-tert-butyl-2-({2-[4-(2-hydroxyethoxy)pyridin-2-yl]-5H,6H,7H-cyclopenta[d]pyrimidin-4-yl}(methyl)amino)propanamide] displayed a pEC50 of 8.4.

Consider `COc1ccc(NC(=O)[C@@H](C)N(C)c2nc(-c3cc(OC4COC4)ccn3)nc3c2CCC3)cn1` [Compound 312, (2R)-N-(6-methoxypyridin-3-yl)-2-[methyl({2-[4-(oxetan-3-yloxy)pyridin-2-yl]-5H,6H,7H-cyclopenta[d]pyrimidin-4-yl})amino]propanamide], for which the pEC50 is reported as 7.7.

`CN(CC(=O)Nc1ccc(F)cc1)c1nc(-c2cc3cnn(C)c3cn2)nc2c1CCC2` [Compound 313, N-(4-fluorophenyl)-2-[methyl(2-{1-methyl-1H-pyrazolo[3,4-c]pyridin-5-yl}-5H,6H,7H-cyclopenta[d]pyrimidin-4-yl)amino]acetamide] yielded a pEC50 of 7.3.

On to `CN(CC(=O)Nc1ccc(F)cc1)c1nc(-c2cc3cn(C)nc3cn2)nc2c1CCC2` [Compound 314, N-(4-fluorophenyl)-2-[methyl(2-{2-methyl-2H-pyrazolo[3,4-c]pyridin-5-yl}-5H,6H,7H-cyclopenta[d]pyrimidin-4-yl)amino]acetamide], for which the pEC50 was found to be 7.6.

Regarding `CN(Cc1ncnn1-c1cccc(F)c1)c1nc(-c2cc(OCCO)ccn2)nc2c1CCC2` [Compound 315, 2-({2-[4-({[1-(3-fluorophenyl)-1H-1,2,4-triazol-5-yl]methyl}(methyl)amino)-5H,6H,7H-cyclopenta[d]pyrimidin-2-yl]pyridin-4-yl}oxy)ethan-1-ol], the pEC50 came to 6.8.

As to `Cc1ccc(NC(=O)[C@@H](C)N(C)c2nc(-c3cc(OCCO)ccn3)nc3c2CCC3)cn1` [Compound 316, (2R)-2-({2-[4-(2-hydroxyethoxy)pyridin-2-yl]-5H,6H,7H-cyclopenta[d]pyrimidin-4-yl}(methyl)amino)-N-(6-methylpyridin-3-yl)propanamide], the pEC50 turned out to be 7.8.

Consider `CN(CC(=O)NC(C)(C)C)c1nc(-c2cc(O[C@H]3CCOC3)ccn2)nc2c1CCC2` [Compound 317, N-tert-butyl-2-[methyl(2-{4-[(3S)-oxolan-3-yloxy]pyridin-2-yl}-5H,6H,7H-cyclopenta[d]pyrimidin-4-yl)amino]acetamide], for which the pEC50 worked out at 7.9.

Regarding `CN(CC(=O)NC(C)(C)C)c1nc(-c2cc(O[C@@H]3CCOC3)ccn2)nc2c1CCC2` [Compound 318, N-tert-butyl-2-[methyl(2-{4-[(3R)-oxolan-3-yloxy]pyridin-2-yl}-5H,6H,7H-cyclopenta[d]pyrimidin-4-yl)amino]acetamide], the pEC50 is reported as 7.9.

For the compound `CN(Cc1nncn1-c1cccc(F)c1)c1nc(-c2cc(OCCO)ccn2)nc2c1CCC2` [Compound 319], the pEC50 worked out at 6.4.

Consider `CN(c1nc(-c2cc(OCCO)ccn2)nc2c1CCC2)[C@H]1CCCN(c2cccc(F)c2)C1=O` [Compound 320, (3S)-1-(3-fluorophenyl)-3-({2-[4-(2-hydroxyethoxy)pyridin-2-yl]-5H,6H,7H-cyclopenta[d]pyrimidin-4-yl}(methyl)amino)piperidin-2-one], for which the pEC50 worked out at 7.1.

In turn, `CN(c1nc(-c2cc(OCCO)ccn2)nc2c1CCC2)[C@@H]1CCCN(c2cccc(F)c2)C1=O` [Compound 321, (3R)-1-(3-fluorophenyl)-3-({2-[4-(2-hydroxyethoxy)pyridin-2-yl]-5H,6H,7H-cyclopenta[d]pyrimidin-4-yl}(methyl)amino)piperidin-2-one] yielded a pEC50 of 7.1.

`CN(CC(=O)N(C)C(C)(C)C)c1nc(-c2cc(OC3COC3)ccn2)nc2c1CCC2` [Compound 322, N-tert-butyl-N-methyl-2-[methyl({2-[4-(oxetan-3-yloxy)pyridin-2-yl]-5H,6H,7H-cyclopenta[d]pyrimidin-4-yl})amino]acetamide] showed a pEC50 of 7.7.

Turning to `CN(CC(=O)N1CCCCC1)c1nc(-c2cc(OC3COC3)ccn2)nc2c1CCC2` [Compound 323, 2-[methyl({2-[4-(oxetan-3-yloxy)pyridin-2-yl]-5H,6H,7H-cyclopenta[d]pyrimidin-4-yl})amino]-1-(piperidin-1-yl)ethan-1-one], the pEC50 was 7.5.

`Cc1ccc(NC(=O)CN(C)c2nc(-c3cc(OC4COC4)ccn3)nc3c2CCC3)cn1` [Compound 324, 2-[methyl({2-[4-(oxetan-3-yloxy)pyridin-2-yl]-5H,6H,7H-cyclopenta[d]pyrimidin-4-yl})amino]-N-(6-methylpyridin-3-yl)acetamide]: the pEC50 worked out at 7.4.

`CN(CC(=O)Nc1ccc(Cl)cc1)c1nc(-c2cc(OC3COC3)ccn2)nc2c1CCC2` [Compound 325, N-(4-chlorophenyl)-2-[methyl({2-[4-(oxetan-3-yloxy)pyridin-2-yl]-5H,6H,7H-cyclopenta[d]pyrimidin-4-yl})amino]acetamide]: the pEC50 came to 7.9.

`Cc1ccc(NC(=O)CN(C)c2nc(-c3cc(OC4COC4)ccn3)nc3c2CCC3)cc1` [Compound 326, 2-[methyl({2-[4-(oxetan-3-yloxy)pyridin-2-yl]-5H,6H,7H-cyclopenta[d]pyrimidin-4-yl})amino]-N-(4-methylphenyl)acetamide]: the pEC50 was 7.9.

In turn, `COc1ccc(NC(=O)CN(C)c2nc(-c3cc(OC4COC4)ccn3)nc3c2CCC3)cc1` [Compound 327, N-(4-methoxyphenyl)-2-[methyl({2-[4-(oxetan-3-yloxy)pyridin-2-yl]-5H,6H,7H-cyclopenta[d]pyrimidin-4-yl})amino]acetamide] showed a pEC50 of 7.9.

Consider `CN(CC(=O)NC(C)(C)C)c1nc(-c2cc3ncsc3cn2)nc2c1CCC2` [Compound 328, N-tert-butyl-2-[methyl(2-{[1,3]thiazolo[5,4-c]pyridin-6-yl}-5H,6H,7H-cyclopenta[d]pyrimidin-4-yl)amino]acetamide], for which the pEC50 is recorded as 6.8.
